Source: patent US20110166223A1, “METHODS OF INHIBITING FGFR3 SIGNALING” (CEDARS-SINAI MEDICAL CENTER, priority 2008, published 2011)

Key:
[1] = Water solubility (statement); format: physicochemical
[2] = test system: FGF2-mediated extracellular matrix loss in RCS chondrocytes; experiment: Alcian blue staining of extracellular matrix in RCS chondrocytes; format: cell-based, rat; details: FGF2 5 ng/ml, NF449 20 μM, 72 hours, FIG. 2a
Protocol: For Alcian blue staining, growing RCS cultures were treated with FGF2 (5 ng/ml) alone or in the presence of NF449 (20 μM) for 72 hours, fixed with 4% paraformaldehyde and stained for 30 minutes with Alcian blue. For quantification of the FGF2/FGFR3-mediated extracellular matrix loss, RCS chondrocytes were treated with FGF2 (5 ng/ml) and NF449 (20 μM) for 72 hours in the presence of 10 μCi/ml of [^35S]sulfate (Perkin Elmer, Boston, Mass.). Following the cultivation period, cells were harvested and the incorporated radioactivity was determined by liquid scintillation.
Apart from the growth arrest, aberrant FGFR3 signaling in chondrocytes leads to the loss of their extracellular matrix, rich in sulfated proteoglycans, due to inhibition of matrix synthesis as well as degradation of the existing matrix. The inventors therefore evaluated whether NF449 rescues the extracellular matrix loss induced by FGFR3 activation. […] Similar to previous findings, this matrix was lost after the 72-hours of FGF2 treatment. […] To further confirm this observation, cells were incubated with [^35S]sulfate for 72 hours to label the extracellular matrix and determined the effect of FGF2 and NF449 on the cell-bound radioactivity.

[3] = test system: limb growth and size of cultured embryos; experiment: Embryo limb culture; details: 30 μM; embryos cultured for six (6) days; FIG. 8
Excerpt: FIG. 8, in accordance with an embodiment herein, depicts embryos cultured for six (6) days.

[4] = test system: ERK MAP kinase phosphorylation in KMS11 and OPM2 cells; experiment: FGF2-mediated ERK MAP kinase phosphorylation by western blotting in MM cell lines; format: cell-based; details: NF449 one hour before FGF2, FIG. 3a
Protocol: FIG. 3, in accordance with an embodiment herein, depicts 4,4′,4″,4′″-[carbonyl-bis[imino-5,1,3-benzenetriyl bis-{carbonylimino}]]tetrakis-{benzene-1,3-disulfonic acid} inhibits FGF2/FGFR3 signaling in MM cell lines OPM2 and KMS11. (a) KMS11 and OPM2 cells were serum-starved for 12 hours, treated with 4,4′,4″,4′″-[carbonyl-bis[imino-5,1,3-benzenetriyl bis-{carbonylimino}]]tetrakis-{benzene-1,3-disulfonic acid} for one hour before the treatment with FGF2 and the levels of ERK MAP kinase phosphorylation were determined by western blotting with the P-ERK1/2(Thr^202/Tyr^204) antibody. As a loading control, the membranes were reprobed with antibody recognizing ERK regardless of its phosphorylation. […] (b) The OPM2 cells were serum starved for 12 hours, pre-treated with 4,4′,4″,4′″-[carbonyl-bis[imino-5,1,3-benzenetriyl bis-{carbonylimino}]]tetrakis-{benzene-1,3-disulfonic acid} for one hour before FGF2 treatment, and analyzed for CCL3 and CCL4 expression by real-time RT-PCR as described herein. The results are expressed as the fold difference relative to control (2^ddCt). […]
Since MM represents another area of pathological FGFR3 signaling in viva, the inventors evaluated whether NF449 inhibits FGFR3 signaling in KMS11 and OPM2 MM cell lines. […]

[5] = listed as 4,4′,4″,4′″-[carbonyl-bis[imino-5,1,3-benzenetriyl bis-{carbonylimino}]]tetrakis

In the case of `O=C(Nc1cc(C(=O)Nc2ccc(S(=O)(=O)O)cc2S(=O)(=O)O)cc(C(=O)Nc2ccc(S(=O)(=O)O)cc2S(=O)(=O)O)c1)Nc1cc(C(=O)Nc2ccc(S(=O)(=O)O)cc2S(=O)(=O)O)cc(C(=O)Nc2ccc(S(=O)(=O)O)cc2S(=O)(=O)O)c1` [NF449, 4,4′,4″,4′″-[carbonyl-bis[imino-5,1,3-benzenetriylbis-{carbonylimino}]]tetrakis-{benzene-1,3-disulfonic acid}], the water solubility [1] is reported as “water-soluble”, the “FGF2-induced cellular shape change” value [2] is reported as “rescued” and the “FGF2-mediated extracellular matrix loss, Alcian blue staining” value [2] is reported as “equaled that of the control cells”. For the same molecule, the “FGF2-mediated extracellular matrix loss, Alcian blue staining” value [2, 5] was “reversed”, the “limb growth and size” value [3] was “greater limb growth and size” and the “FGF2-mediated Thr202/Tyr204 phosphorylation of ERK” value [4] was “almost completely blocked”. The “FGF2-mediated Thr202/Tyr204 phosphorylation of ERK” value [4, 5] was “inhibited”.
